Patent US9365489B2, “Nitrooxy alkanoic acids and derivatives thereof in feed for reducing methane emission in ruminants, and/or to improve ruminant performance” (priority 2009, dated 2016)
Marks after values point to notes of the source that are not given here.

Key:
[1] = tested on: methane emissions by sheep; assay: In vivo test for methane inhibition: methane emissions in chambers; conditions: for CH4, l/kg BW / CH4, l/day / CH4, l/kg DMI: average of 3 consecutive days; for CH4, l/kg BW: control 0.59; for CH4, l/day: control 25.5; for CH4, l/kg DMI: control 31.5; for reduction of methane emissions: vs control
Text: (§1) The experimental design consisted of a cross-over design with 2 sheep per treatment in each period. The trial consisted in 3 consecutive periods of: 14 days of adaptation to the dose plus three consecutive days of methane measurements in chambers. This 14 days adaptation phase was established as the period necessary for wash out between different doses assayed in consecutive periods. During the last two days of methane measurements in chambers rumen contents samples were collected two hours after the morning feeding, sub sampled and immediately frozen prior DNA extraction and determination of volatile fatty acids and ammonia nitrogen concentration. Experimental animals were randomly allocated in three sub-groups of 2 animals and were assigned one of the three treatments (control, dose 1 and dose 2). The 3 sub-groups started the adaptation period with a gap of three days so they had the same number of adaptation days prior to methane measurement in the chambers. Each animal was held in cages with constant access to fresh water. The diet provided to the animals consisted of alfalfa hay chopped at 15 to 20 cm and concentrate in a proportion 1:1 at approximately 1.1 times the energy requirements maintenance level (Prieto et al, 1990) plus mineral-vitamin supplement. Fresh matter intake was monitored daily for each animal throughout the trial. The diet was provided to animals in two equal meals at 9.00 h and 14.00 h.
(§2) The additive was provided twice a day through the ruminal cannula at the same time as the diet. The corresponding amount to each dose was added into 10 grams of grounded concentrate and wrapped in cellulose paper immediately before it was placed in the rumen. In order to avoid the volatility of the active molecule, both additives were kept in a cold room at 4° C. where the daily process of dispensing it in the cellulose bags was carried out.
(§3) The doses were 50 (dose 1) and 500 (dose 2) mg/animal per day. The higher dose was reached after 3 days of gradual increases (50, 200 and 500 mg), so the whole adaptation period was consequently extended for 3 more days.
On day 14 animals were introduced in the chambers for methane measurements for 3 consecutive days. Each chamber measured 1.8 m wide×1.8 m deep×1.5 m tall. Chamber air temperature was maintained between 15 and 20° C. Within each chamber, the animals were individually restrained in the same cages as in the adaptation period. Interruptions occurred daily at 8.30 h, when the chamber floor was cleaned, and the animals were fed. These interruptions had little impact on the daily emissions because fluxes were calculated three times per day and then averaged to derive the 23-hour emission value. Airflow and concentration of methane was measured for the intake and exhaust ducts of each chamber. Air velocity was continuously monitored over the day in each intake and exhaust duct for each chamber. The air stream in each of the 3 ducts (chamber 1, chamber 2 and background) was sub-sampled, and methane concentration was measured continuously using a gas analyzer ADM MGA3000 (Spurling works, Herts, UK). It took 8 min. to sequentially sample the airflow in all intake and exhaust ducts in both chambers (3 min. in chambers 1 and 2, 2 min for background). In summary, the flux of methane for each chamber was calculated for each of the 3-day periods of measurement from the difference of fresh-air input and chamber exhaust methane concentrations and mean air velocities.
Individual methane emissions, VFA profiles, ratio of acetate to propionate, ammonia N concentration, and log10 transformations of concentration of total bacteria, total protozoa and methanogenic archaea were analyzed for the following effects: additive dose, day of measurement, and their interaction using a repeated measures analysis of variance under the cross-over design arrangement of the experiment. The standard error of the mean (SEM) was computed for each analysis. […]

[2] = tested on: rumen fermentation parameters; assay: In vivo test: rumen volatile fatty acids and ammonia nitrogen; conditions: rumen of sheep; for iso-valeric (VFA profile): control 1.60; for Valeric (VFA profile): control 1.69; for Butiric (VFA profile): control 3.69; for C2/C3 (acetate to propionate ratio): control 4.59; for iso-butiric (VFA profile): control 6.73; for Propionic (VFA profile): control 15.7; for NH3—N (ammonia Nitrogen concentration): control 42.5; for Acetic (VFA profile): control 70.6; for Total volatile fatty acid concentration: control 111.3
Text: as §1, §2, §3
Volatile fatty acids were analysed by gas chromatography and ammonia N concentration by colorimetry according to (Cantalapiedra-Híjar et al. Journal of Animal Science. 87, 622-631, 2009).
Individual methane emissions, VFA profiles, ratio of acetate to propionate, ammonia N concentration, and log10 transformations of concentration of total bacteria, total protozoa and methanogenic archaea were analyzed for the following effects: additive dose, day of measurement, and their interaction using a repeated measures analysis of variance under the cross-over design arrangement of the experiment. The standard error of the mean (SEM) was computed for each analysis. No significant effect of the measuring day or its interaction with additive dose was detected in either experiments, so only the effect of the dose is included in the tables. Means were further compared using a least significant difference (LSD) procedure. The SPSS for Windows, version 14.0 (2005; SPSS Inc., Chicago, Ill.) was used for data entry and statistical analysis.

## CCOC(=O)CCO[N+](=O)[O-] [Ethyl-3-nitrooxy propionate]
[1]; Dose 1 (50 mg/animal per day)
  CH4, l/kg BW: 0.51^ab l/kg BW
  CH4, l/day: 22.3^ab l/day
  CH4, l/kg DMI: 26.0^ab l/kg DMI
[1]; Dose 2 (500 mg/animal per day)
  CH4, l/kg BW: 0.42^b l/kg BW
  CH4, l/day: 18^b l/day
  CH4, l/kg DMI: 22.2^b l/kg DMI
[1]; dose 1 (50 mg/animal per day)
  reduction of methane emissions: 18%
[1]; dose 2 (500 mg/animal per day), P<0.05
  reduction of methane emissions: 29%
[1]; sheep, 50 and 500 mg/animal per day
  inhibition of methanogenesis (conclusion in words): strong inhibitor of methanogenesis
[2]; Dose 1 (50 mg/animal per day)
  iso-valeric (VFA profile): 1.50 mol/100 mol
  Valeric (VFA profile): 1.55^a mol/100 mol
  Butiric (VFA profile): 3.50 mol/100 mol
  C2/C3 (acetate to propionate ratio): 4.26^ab
  iso-butiric (VFA profile): 5.57^a mol/100 mol
  Propionic (VFA profile): 16.8^ab mol/100 mol
  NH3—N (ammonia Nitrogen concentration): 40.5 mg/100 ml
  Acetic (VFA profile): 71.0^a mol/100 mol
  Total volatile fatty acid concentration: 123.3^a mmol/l
[2]; Dose 2 (500 mg/animal per day)
  iso-valeric (VFA profile): 1.76 mol/100 mol
  Valeric (VFA profile): 2.42^b mol/100 mol
  Butiric (VFA profile): 3.47 mol/100 mol
  C2/C3 (acetate to propionate ratio): 3.57^b
  iso-butiric (VFA profile): 8.06^b mol/100 mol
  Propionic (VFA profile): 18.8^b mol/100 mol
  NH3—N (ammonia Nitrogen concentration): 40.1 mg/100 ml
  Acetic (VFA profile): 65.5^b mol/100 mol
  Total volatile fatty acid concentration: 104.1^b mmol/l
